# Entries after “also recorded” stand apart in the source; their conditions may differ.
# Experiments:
# [1] = 0.1M HCl aqueous solution (pH: 1.1); details: 25±2° C., up to 72 hours
# [2] = Mcllvain buffer solutions (pH: 2.0, 3.0, 4.0, 5.0, 6.0, 7.0, 8.0); details: 25±2° C., up to 72 hours
# [3] = Britton-Robinson buffer solutions having pH of 2.1, 3.1, 4.0, 5.0, 6.0, 7.0 and 7.9; details: 40±1° C., up to 1 day
# [4] = Britton-Robinson buffer solution (pH 7.0); details: 40±1° C.
# [5] = purified water, pH 4.7, or adjusted to pH 1.8, 3.9 (hydrochloric acid) and 7.8 (sodium hydroxide); details: 25±2° C., up to 3 day
fragment found [5],Substance,cleaved bond [1],cleaved bond [2],cleaved bond [3],cleaved bond ([4]; up to 14 days),fragment found ([4]; up to 14 days),cleaved bond [5],fragment found ([4]; up to 3 days)
"Dha compound, 1 day",GSS(n-octanoyl)FLSPEHQRVQQRKESKKPPAKLQPR,"hydrolytic cleavage of octanoyl group, 8 hr.","hydrolytic cleavage of octanoyl group, 8 hr.","hydrolytic cleavage of octanoyl group, 1 day","hydrolytic cleavage of octanoyl group of human ghrelin, major, 4 days; also recorded: β-elimination of octanoyl group of human ghrelin, major, 4 days","degradation product D = desacyl human ghrelin (3-28), 14 days; also recorded: degradation product E = [N^α—CO—C(═CH2)—OH]human ghrelin(4-28), 14 days","hydrolytic cleavage of octanoyl group, 1 day",
,[3-Dehydroalanine]human ghrelin,,,,,,,"[N^α—CO—C(═CH2)—OH]human ghrelin(4-28) (2nd degradation product of Dha compound), 3 days"
,desacylated human ghrelin,,,,,"desacyl human ghrelin (3-28), major, 14 days",,

# Reference: patent US20120264691 (published 2012)
